{"source": "paper PMC8015083", "about": "(ACS Omega, 2021)", "key": {"C. neoformans": {"test_system": "C. neoformans", "assay": "microbe, parasite or virus in culture", "format": "cell-based, Cryptococcus neoformans", "conditions": "for MIC80: Cryptococcus neoformans"}, "C. neoformans KN99 [1]": {"test_system": "C. neoformans KN99", "assay": "microbe, parasite or virus in culture", "format": "cell-based", "conditions": "Cryptococcus neoformans, KN99, 48 h, read-out: C. neo MIC80"}, "M. furfur": {"test_system": "M. furfur", "assay": "microbe, parasite or virus in culture", "format": "cell-based", "conditions": "Malassezia furfur, read-out: MIC80 in M. furfur"}, "M. pachydermatis": {"test_system": "M. pachydermatis", "assay": "microbe, parasite or virus in culture", "format": "cell-based", "conditions": "Malassezia pachydermatis, read-out: MIC80 in M. pachydermatis"}, "C. neoformans KN99 [2]": {"test_system": "C. neoformans KN99", "format": "cell-based, Cryptococcus neoformans"}, "C. neoformans KN99 [3]": {"test_system": "C. neoformans KN99", "format": "cell-based, Cryptococcus neoformans", "remark": "listed apart in the source"}, "[4]": {"test_system": "C. neoformans aox1Δ strain", "format": "cell-based, Cryptococcus neoformans"}, "[5]": {"conditions": "human, in vivo; cited from earlier work"}}, "note": "Several values for one entry are separate records, joined by “and”; a condition that tells them apart may be missing. Equal entries are not always repeated. Where two headings read alike, the source gives them in different places.", "data": [{"smiles": "C[C@@H]1[C@H](O)[C@@H](C)/C=C/C=C/C=C/C=C/C=C/C=C/C=C/[C@H](O[C@@H]2O[C@H](C)[C@@H](O)[C@H](N)[C@@H]2O)C[C@@H]2O[C@](O)(C[C@@H](O)C[C@@H](O)[C@H](O)CC[C@@H](O)C[C@@H](O)CC(=O)O[C@H]1C)C[C@H](O)[C@H]2C(=O)O", "note": "[AMB, amphotericin B]", "values": [{"measurement": "MIC80", "setting": "C. neoformans; read-out: MIC80 alone, AMB", "value": 1.5, "unit": "µM"}]}, {"smiles": "Cc1cc(-c2ccc(S(=O)(=O)O)cc2)c2ccc3c(-c4ccc(S(=O)(=O)O)cc4)cc(C)nc3c2n1", "note": "[BCS, bathocuproinedisulfonic acid]", "values": [{"measurement": "MIC80 alone, BCS", "setting": "C. neoformans", "value": ">200", "unit": "µM"}]}, {"smiles": "Cc1cc(C2CCCCC2)n(O)c(=O)c1", "note": "[CPO, Ciclopirox olamine]", "values": [{"measurement": "MIC", "setting": "C. neoformans KN99 [1]", "value": "0.87 µM and 0.18 µg/mL"}, {"measurement": "MIC80", "setting": "M. furfur", "value": "~25", "unit": "µM"}, {"measurement": "MIC80", "setting": "M. pachydermatis", "value": "~25", "unit": "µM"}, {"measurement": "killing of the cells", "setting": "C. neoformans KN99 [2]", "value": 99.9, "unit": "%"}, {"measurement": "FICI", "setting": "C. neoformans", "value": 0.75}, {"measurement": "rescue of inhibition by exogenous copper", "setting": "C. neoformans KN99 [3]", "value": "partially rescued"}, {"measurement": "rescue of inhibition by exogenous iron", "setting": "C. neoformans KN99 [3]", "value": "fully rescued"}, {"measurement": "rescue of inhibition by zinc", "setting": "C. neoformans KN99 [3]", "value": "did not rescue"}, {"measurement": "MIC80 in aox1Δ strain compared with wild type", "setting": "[4]", "value": "no difference in sensitivity"}, {"measurement": "tolerability of oral dosing", "setting": "[5]", "value": "well tolerated"}]}, {"smiles": "Cc1c(O)c(=O)ccn1C", "note": "[DFP, deferiprone]", "values": [{"measurement": "MIC80 alone, DFP", "setting": "C. neoformans", "value": 200, "unit": "µM"}, {"measurement": "MIC80", "setting": "C. neoformans; read-out: MIC80 alone, DFP", "value": "> 200", "unit": "µM"}]}, {"smiles": "OC(Cn1cncn1)(Cn1cncn1)c1ccc(F)cc1F", "note": "[FLC, fluconazole]", "values": [{"measurement": "MIC80", "setting": "C. neoformans; read-out: MIC80 alone, FLC", "value": 3, "unit": "µM"}]}, {"smiles": "O=C(NO)c1ccccc1O", "note": "[SHAM, salicylhydroxamic acid]", "values": [{"measurement": "MIC80", "setting": "C. neoformans; read-out: MIC80 alone, SHAM", "value": 2000, "unit": "µM"}]}, {"smiles": "Cc1cc(CC2CCCCC2)n(O)c(=O)c1", "note": "[SLU-2321]", "values": [{"measurement": "FICI", "setting": "C. neoformans", "value": 0.63}, {"measurement": "FICI in combination with CPO", "setting": "C. neoformans", "value": 0.51}, {"measurement": "rescue of inhibition by exogenous copper", "setting": "C. neoformans KN99 [3]", "value": "only partially rescued"}, {"measurement": "rescue of inhibition by exogenous iron", "setting": "C. neoformans KN99 [3]", "value": "fully rescued"}, {"measurement": "rescue of inhibition by zinc", "setting": "C. neoformans KN99 [3]", "value": "did not rescue"}]}, {"smiles": "Cc1cc(Cc2ccc(Cl)cc2)n(O)c(=O)c1", "note": "[SLU-2707]", "values": [{"measurement": "FICI", "setting": "C. neoformans", "value": 0.63}, {"measurement": "FICI in combination with CPO", "setting": "C. neoformans", "value": 0.37}, {"measurement": "rescue of inhibition by exogenous copper", "setting": "C. neoformans KN99 [3]", "value": "did not rescue"}, {"measurement": "rescue of inhibition by exogenous iron", "setting": "C. neoformans KN99 [3]", "value": "fully rescued"}, {"measurement": "rescue of inhibition by zinc", "setting": "C. neoformans KN99 [3]", "value": "did not rescue"}]}, {"smiles": "O=C(O)CC(=O)O", "note": "[malonate]", "values": [{"measurement": "MIC80", "setting": "C. neoformans; read-out: MIC80 alone, malonate", "value": 25, "unit": "µM"}]}, {"smiles": "CO/C(=C/C(N)=O)[C@H](C)[C@H](/C=C/c1csc(-c2csc([C@@H](C)/C=C/C=C/C(C)C)n2)n1)OC", "note": "[myxothiazol]", "values": [{"measurement": "MIC80 alone, myxothiazol", "setting": "C. neoformans", "value": 5, "unit": "µM"}]}, {"smiles": "Cc1ccc2ccc3ccc(C)nc3c2n1", "note": "[neocuproine]", "values": [{"measurement": "MIC80", "setting": "C. neoformans; read-out: MIC80 alone, neocuproine", "value": 0.25, "unit": "µM"}]}, {"smiles": "C=C(C)[C@H]1Cc2c(ccc3c2O[C@@H]2COc4cc(OC)c(OC)cc4[C@@H]2C3=O)O1", "note": "[rotenone]", "values": [{"measurement": "MIC80", "setting": "C. neoformans; read-out: MIC80 alone, rotenone", "value": 15, "unit": "µM"}]}]}
